Key:
Experiment in all cases: chemiluminescence-based AMP detection (AMP-Glo) deadenylase assay
Format in all cases: biochemical
[1] = target: T1, human Caf1/CNOT7 (Homo sapiens, UniProt Q9UIV1); details: read-out: IC50 (μM) vs Caf1 ^b
T1 construct: isolated recombinant wild-type Caf1 subunit, expressed and purified from Escherichia coli BL21(DE3)
Excerpt: chemiluminescence-based AMP detection (AMP-Glo) deadenylase assay on human Caf1/CNOT7

[2] = target: T2, human pentameric central module (BTG2-Caf1/CNOT7-Ccr4/CNOT6L-CNOT1-CNOT9) of Ccr4-Not (Homo sapiens, UniProt Q9UIV1); details: read-out: IC50 (μM) vs pentameric Caf1-complex ^d
T2 construct: pentamer reconstituted from separately purified nuclease module and CNOT1 (MIF4G and DUF3819 domains, 1093-1595)-CNOT9 (ARM domain, 33-283) dimer; E. coli; with CCR4-NOT transcription complex subunit 6-like; Protein BTG2; CCR4-NOT transcription complex subunit 1; CCR4-NOT transcription complex subunit 9

[3] = target: T3, trimeric human nuclease module (BTG2-Caf1/CNOT7-Ccr4/CNOT6L) (Homo sapiens, UniProt Q9UIV1); details: read-out: IC50 (μM) vs trimeric Caf1-complex ^c
T3 construct: trimeric complex co-expressed from pQE80L-BTG2 and pACYC-Duet1-Strep-CNOT6L-CNOT7 in E. coli; with CCR4-NOT transcription complex subunit 6-like; Protein BTG2
T3 sequence (Q9UIV1 whole entry, other chains not shown): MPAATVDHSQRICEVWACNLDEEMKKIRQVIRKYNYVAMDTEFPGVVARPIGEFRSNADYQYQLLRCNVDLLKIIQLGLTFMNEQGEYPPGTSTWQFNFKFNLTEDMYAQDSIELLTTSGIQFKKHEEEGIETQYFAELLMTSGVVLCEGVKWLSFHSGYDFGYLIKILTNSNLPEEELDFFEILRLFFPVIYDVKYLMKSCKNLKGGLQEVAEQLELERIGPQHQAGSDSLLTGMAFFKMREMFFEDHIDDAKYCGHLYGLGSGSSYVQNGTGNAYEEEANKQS
T3 sequence (P78543 whole entry partner, other chains not shown): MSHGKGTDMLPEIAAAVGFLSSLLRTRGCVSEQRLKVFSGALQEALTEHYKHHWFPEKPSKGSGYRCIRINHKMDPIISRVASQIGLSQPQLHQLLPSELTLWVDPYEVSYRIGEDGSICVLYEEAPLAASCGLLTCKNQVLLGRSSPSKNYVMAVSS

T1 sequence (Q9UIV1 whole entry): as the sequence (Q9UIV1 whole entry, other chains not shown) above
T2 sequence (Q9UIV1 whole entry, other chains not shown, the tested form may be a part): as the sequence (Q9UIV1 whole entry, other chains not shown) above
T2 sequence (P78543 whole entry partner, other chains not shown, the tested form may be a part): as the sequence (P78543 whole entry partner, other chains not shown) above
T2 sequence (A5YKK6 1093-1595 partner, other chains not shown): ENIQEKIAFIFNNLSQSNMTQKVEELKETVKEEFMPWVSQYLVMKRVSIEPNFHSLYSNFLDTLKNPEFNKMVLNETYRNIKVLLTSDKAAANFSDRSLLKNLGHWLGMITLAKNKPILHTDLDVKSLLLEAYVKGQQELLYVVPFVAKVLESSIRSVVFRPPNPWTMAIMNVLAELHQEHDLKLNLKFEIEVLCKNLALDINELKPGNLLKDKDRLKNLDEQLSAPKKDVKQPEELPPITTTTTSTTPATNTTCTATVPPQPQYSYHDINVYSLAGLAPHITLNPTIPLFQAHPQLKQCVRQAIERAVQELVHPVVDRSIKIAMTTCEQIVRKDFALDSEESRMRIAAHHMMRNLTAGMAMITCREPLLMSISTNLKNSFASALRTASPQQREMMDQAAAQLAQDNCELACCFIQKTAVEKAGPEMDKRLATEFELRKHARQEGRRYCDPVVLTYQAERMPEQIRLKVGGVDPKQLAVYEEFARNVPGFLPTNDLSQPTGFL
T2 sequence (Q92600 33-283 partner, other chains not shown): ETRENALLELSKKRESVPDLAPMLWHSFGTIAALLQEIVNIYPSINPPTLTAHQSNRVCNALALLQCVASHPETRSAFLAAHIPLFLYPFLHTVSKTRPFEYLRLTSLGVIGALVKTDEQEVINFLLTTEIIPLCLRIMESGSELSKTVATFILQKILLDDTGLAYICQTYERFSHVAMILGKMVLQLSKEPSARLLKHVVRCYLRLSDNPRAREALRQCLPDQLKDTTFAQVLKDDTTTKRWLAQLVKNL

Row | IC50 [1] | IC50 [2] | IC50 [3] | Compound
1 | 12.7 ± 0.9 µM | 10.8 ± 0.2 µM | 13.6 ± 0.6 µM | O=c1[nH]c2ncn(Cc3ccccc3)c2c(=O)n1O [compound 1, 1-hydroxy-xanthine compound 1]
2 | 0.79 ± 0.09 µM | 0.98 ± 0.07 µM | 1 ± 0.2 µM | CN(C)CCCn1c(=O)n(O)c(=O)c2c1ncn2CCc1ccccc1 [compound 5, 1-hydroxy-xanthine compound 5]

Source: paper PMC6443996, “1‐Hydroxy‐xanthine derivatives inhibit the human Caf1 nuclease and Caf1‐containing nuclease complexes via Mg^2+‐dependent binding” (FEBS Open Bio, 2019)
